# Experimental data published in US7723328B2, “Methods of facilitating cell survival using neurotrophin mimetics” (The University of North Carolina at Chapel Hill, priority 2005, dated 2010).
# Entries after “also recorded” stand apart in the source; their conditions may differ.
# T1: p75^NTR-expressing 3T3 cells (Homo sapiens, UniProt P08138)
# T1 construct: host or cells: NIH3T3 fibroblasts
# T1 sequence (P08138 29-427): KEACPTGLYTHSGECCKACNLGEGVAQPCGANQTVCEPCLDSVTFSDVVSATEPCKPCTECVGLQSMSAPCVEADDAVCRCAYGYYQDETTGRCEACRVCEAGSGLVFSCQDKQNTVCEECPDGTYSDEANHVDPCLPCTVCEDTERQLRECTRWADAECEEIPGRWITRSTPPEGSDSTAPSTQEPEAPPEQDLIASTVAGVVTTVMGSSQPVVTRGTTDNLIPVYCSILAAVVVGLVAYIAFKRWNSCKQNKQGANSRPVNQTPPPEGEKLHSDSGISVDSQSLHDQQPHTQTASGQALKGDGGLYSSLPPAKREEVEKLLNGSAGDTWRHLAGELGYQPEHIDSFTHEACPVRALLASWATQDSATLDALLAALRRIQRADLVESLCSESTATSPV
# B1: BDNF: brain-derived neurotrophic factor from Sigma-Aldrich (protein, UniProt P23560 19-247, looked up)
# Neurotrophic factor BDNF …: APMKEANIRGQGGLAYPGVRTHGTLESVNGPKAGSRGLTSLADTFEHVIEELLDEDQKVRPNEENNKDADLYTSRVMLSSQVPLEPPLLFLLEEYKNYLDAANMSMRVRRHSDPARRGELSVCDSISEWVTAADKKTAVDMSGGTVTVLEKVPVSKGQLKQYFYETKCNPMGYTKEGCRGIDKRHWNSQCRTTQSYVRALTMDSKKRIGWRFIRIDTSCVCTLTIKRGR
# How the values were obtained:
# E17 hippocampal neurons = assay: Aβ-induced death of hippocampal neurons; format: cell-based; conditions: for protection against Aβ1-42-induced death: Aβ1-42 10 μM, NGF at 100 pg/ml
# Protocol: Using previously well established protocols, Aβ was preincubated for 3 days in water to allow formation of oligomers. E17 hippocampal neurons were incubated for 5 days to allow for maturation prior to addition of Aβ with test compounds.
# TrkA-Fc = assay: NGF/TrkA-Fc binding by NGF ELISA; conditions: up to 10,000 nM compound
# Protocol: Briefly, 96-well plates were incubated with 0.1 pmol (at 1 nM) of p75/Fc or TrkA/Fc recombinant protein obtained from R&D System (Minneapolis, Minn., United States of America) overnight at 4° C. followed by incubation with blocking buffer for 1 hour at room temperature. […] Plates were then washed five times with Tris-buffered saline (TBS) containing 0.05% Tween-20 and incubated with anti-NGF rabbit polyclonal antibody overnight at 4° C. Following five washes with TBS, wells were incubated for 2.5 hours at room temperature with anti-rabbit IgG HRP conjugate and washed five times. 3,3′,5,5′-tetramethyl-benzidine substrate was added and the optical density measured at 450 nm.
# hippocampal neurons [1] = assay: Hippocampal neuron survival with p75NTR antisera (antibody inhibition); format: cell-based, mouse; conditions: antiserum 1:100, 48 h
# Protocol: (§1) Hippocampal neurons were prepared from E16-17 mouse embryos as previously described (Yang. T. et al. (2003) J Neurosci 23, 3353-3363). […] For studies employing p75^NTR+/+ and p75^NTR−/− neurons, mice carrying a mutation in exon 3 of the p75^NTR gene (Lee, K. F. et al. (1992) Cell 69, 737-749) were bred onto a B6 congenic background (>10 B6 backcrosses).
# (§2) After 48 hours in culture, cell survival was assessed as previously described (Longo, F. M., Manthorpe. M., Xie. Y. M., Varon, S. (1997) J Neurosci Res 48, 1-17) using a combination of standard morphological criteria along with visual determination of whether a given cell converted MTT to its blue formazan product. The number of surviving neurons was determined by counting the total number of cells in each well that were both morphologically intact and filed with blue product (Longo F. M., Manthorpe. M., Xie, Y. M., Varon, S. (1997) J Neurosci Res 48, 1-17). For each neurotrophin or compound concentration, duplicate wells were counted and the resulting values averaged. Activity of each compound was confirmed by blinded counts. Counts were normalized to survival achieved with 25 ng/ml BDNF or to baseline survival. Fitting of dose-responsive curves was performed with Sigmaplot obtained from SYSTAT Software Inc. (Richmond, Calif., United States of America).
# (§3) For all studies applying signaling inhibitors, p75^NTR antibodies or p75^NTR−/− neurons, survival was assessed at 48 hours.
# NFκB-p65 = NFκB-p65 phosphorylation western blot in hippocampal cultures; format: cell-based, mouse; conditions: compounds 20 nM, BDNF/NGF 50 ng/ml; 10 and 30 min
# Protocol: (§4) For assays of Trk, AKT, NFκB, and ERK activation, hippocampal neurons derived from E16-17 mice were cultured in poly-L-lysine coated six-well plates (Corning, Inc., Corning, N.Y., United States of America) in DMEM containing 10% FBS, followed by incubation in serum-free DMEM for 2 hours before addition of neurotrophins or compounds. At the indicated time points, neurons were harvested in lysis buffer consisting of: 20 mM Tris, pH 8.0, 137 mM NaCl, 1% Igepal CA-630, 10% glycerol, 1 mM PMSF, 10 μg/ml aprotinin, 1 μg/ml leupeptin, 500 μM orthovanadate (Zhou, J., Valletta, J. S., Grimes, M. L., Mobley, W. C. (1995) J Neurochem 65, 1146-1156).
# (§5) Lysates were centrifuged, the supernatant collected, and protein concentrations determined using the BCA Protein Assay Reagent obtained from Pierce (Rockford, Ill., United States of America). Western blots were performed as described previously (Yang, T. et al. (2003) J Neurosci 23, 3353-3363). Western blot signals were detected using the ECL Chemiluminescence System obtained by Amersham (Piscataway, N.J., United States of America) (Yang, T. et al. (2003) J Neurosci 23, 3353-3363).
# [2] = biological target: T1, p75^NTR-expressing 3T3 cells; assay: p75NTR antibody (Ab 9651) competition on 3T3 cells, western blot; format: binding; conditions: 100 nM compound, 90 min, 4° C.
# Protocol: NIH3T3 fibroblasts expressing either null vector or p75^NTR (Huang, C. S. et al. (1999) J Biol Chem 274, 36707-36714) were obtained from Dr. William Mobley (Stanford University, Calif., United States of America). Cells were grown in monolayers, harvested in PBS with 2 mM EDTA, pelleted, and resuspended in ice-cold DMEM HEPES with 1 mg/ml BSA. 6-9×10^6 cells from one confluent 6-well plate were used for each experimental point.
# For binding analysis, p75^NTR antibody (1:100) was allowed to bind in the presence or absence of 100 nM p75-binding compounds for 90 minutes at 4° C. with gentle rotation, followed by four washes in PBS. The final cell pellet was resuspended in lysis buffer.
# Western blots were performed as described above. To detect the presence of p75^NTR antibody, blots were probed with horseradish peroxidase-linked goat anti-rabbit IgG obtained from Amersham/Pharmacia Biotech (Piscataway, N.J., United States of America). Signals were detected by the ECL chemiluminescence system obtained from Amersham Biosciences (Piscataway, […]., United States of America). To control for variation in protein loading, the blot was stripped and reprobed with β-actin monoclonal antibody obtained from Sigma (St. Louis, Mo., United States of America).
# [3] = system: E16-17 mouse hippocampal neurons; assay: Hippocampal neuron survival (morphology plus MTT conversion); format: cell-based; conditions: 48 h; counts normalized to 25 ng/ml BDNF or baseline; up to 5 nM
# Protocol: as §1, §2
# mature oligodendrocytes = assay: Oligodendrocyte cell death assay (MBP/TUNEL) with or without proNGF; format: cell-based, rat
# Protocol: Cortical oligondendrocytes from rat pups were prepared as previously described (Yoon et al. (1998) J Neurosci 18, 3273-3281, Harrington, A. W., Kim, J. Y., Yoon, S. O. (2002) J Neurosci 22, 156-166). Cells were treated with recombinant, cleavage-resistant proNGF at 0.05 nM (2.8 ng/ml). Controls were treated with equivalent volumes of proNGF purification buffer containing 350 mM imidazole. 24 hours after treatment, the cells were fixed and processed for MBP and TUNEL staining as previously described (Beattie, M. S. et al. (2002) Neuron 36, 375-386). 200-250 cells were counted per well, for a minimum of 600 cells per experimental condition.
# hippocampal neurons [4] = assay: Hippocampal neuron survival with signaling pathway inhibitors; format: cell-based, mouse; conditions: PD98059 50 μM; BDNF/NGF 25 ng/ml, compounds 5 nM; 48 h
# Protocol: as §1, §2, §3
# p75^NTR−/− cells = assay: Survival of p75NTR+/+ versus p75NTR-/- hippocampal neurons; format: cell-based, mouse; conditions: neurotrophins 1.8 nM, compounds 5 nM
# Protocol: as §1, §2, §3
# ERK42 = ERK42 activation western blot in hippocampal cultures; format: cell-based, mouse; conditions: compounds 20 nM, BDNF/NGF 50 ng/ml; 10 and 30 min
# Protocol: as §4, §5
# AKT = AKT activation western blot in hippocampal cultures; format: cell-based, mouse; conditions: compounds 20 nM, BDNF/NGF 50 ng/ml; 10 and 30 min
# Protocol: as §4, §5
# TrkB = biological target: T2, TrkB (Mus musculus, UniProt P15209); assay: Trk Y490 phosphorylation western blot in hippocampal neuron cultures; format: cell-based; conditions: 10 or 30 minutes
# T2 construct: endogenous in cells; host or cells: primary hippocampal neurons from E16-17 mouse embryos
# T2 sequence (P15209 32-821): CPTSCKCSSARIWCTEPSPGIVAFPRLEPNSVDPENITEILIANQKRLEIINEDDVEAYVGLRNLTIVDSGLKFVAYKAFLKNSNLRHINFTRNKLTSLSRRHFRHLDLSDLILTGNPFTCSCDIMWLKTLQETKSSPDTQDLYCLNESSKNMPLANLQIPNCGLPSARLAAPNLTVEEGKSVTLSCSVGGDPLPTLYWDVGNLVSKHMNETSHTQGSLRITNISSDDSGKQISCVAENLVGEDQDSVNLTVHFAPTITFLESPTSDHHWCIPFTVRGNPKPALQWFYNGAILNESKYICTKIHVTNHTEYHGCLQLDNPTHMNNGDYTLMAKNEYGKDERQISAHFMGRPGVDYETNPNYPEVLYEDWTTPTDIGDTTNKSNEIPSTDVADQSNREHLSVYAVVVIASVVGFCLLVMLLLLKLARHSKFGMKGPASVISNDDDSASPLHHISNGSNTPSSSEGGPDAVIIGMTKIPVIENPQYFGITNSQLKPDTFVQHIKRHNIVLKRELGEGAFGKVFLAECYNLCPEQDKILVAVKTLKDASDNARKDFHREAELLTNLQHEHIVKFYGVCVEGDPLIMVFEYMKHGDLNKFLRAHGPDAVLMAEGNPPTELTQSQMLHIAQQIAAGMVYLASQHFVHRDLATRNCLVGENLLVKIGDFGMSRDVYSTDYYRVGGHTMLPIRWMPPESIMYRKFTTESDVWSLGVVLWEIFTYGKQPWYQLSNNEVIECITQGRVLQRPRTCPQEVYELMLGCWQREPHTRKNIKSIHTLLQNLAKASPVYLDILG
# Protocol: as §4, §5
molecule,measurement,setting,value
CCN(CC)CCCNC(=O)Cn1cnc2c1c(=O)n(C)c(=O)n2C [Compound 5],protection against Aβ1-42-induced death,E17 hippocampal neurons,failed to block
same,effect on NGF binding to TrkA-Fc,TrkA-Fc,"no significant effect up to 10,000 nM"
same,survival versus CM in the presence of Ab 9651,hippocampal neurons [1],not significant
same,NFκB-p65 activation,NFκB-p65,did not induce
same,displacement of anti-p75NTR Ab 9651,[2],no effect
same,neurotrophic activity (neuron survival response),[3],little or no neurotrophic activity; also recorded: no response
same,oligodendrocyte survival with proNGF at 10 nM compound,"mature oligodendrocytes; 10 nM compound, proNGF present",appeared to decrease survival
same,promotion of oligodendrocyte cell death by compound alone,"mature oligodendrocytes; absence of proNGF, 24 h",did not promote cell death
Cn1c(=O)c2c(ncn2CC(=O)NCc2ccco2)n(C)c1=O [Compound 6],protection against Aβ1-42-induced death,E17 hippocampal neurons,failed to block
"Aβ1-42: amyloid-β, preincubated for 3 days in water to allow formation of oligomers [reference compound]",loss of neurons,"E17 hippocampal neurons; Aβ1-42 10 μM or 30 μM, 3 day exposure, no compound",~40%
B1,effect of PD98059 (ERK inhibitor) on survival promoted by the substance,hippocampal neurons [4],significantly decreased; also recorded: small effects
same,effect of p75NTR-deficiency on promotion of neuron survival by the substance,p75^NTR−/− cells,partial responsiveness; also recorded: partially inhibits
same,"survival in p75NTR−/− cultures, comparison of treatments",p75^NTR−/− cells,greater survival than NGF
same,effect of Ab 9651 on promotion of neuron survival by the substance,hippocampal neurons [1],partially blocked; also recorded: partially inhibits
same,survival versus CM in the presence of Ab 9651,hippocampal neurons [1],significantly greater than CM+Ab 9651
same,ERK42 activation,ERK42,greater with BDNF and NGF treatment than with the p75-binding compounds; also recorded: prolonged activation
same,AKT activation,AKT,substantially greater response
same,TrkB activation (Trk Y490 phosphorylation),TrkB,robust Trk activation; also recorded: activated TrkB
